Assay results taken from US20250213560A1, “NITROGEN-CONTAINING HETEROCYCLIC COMPOUNDS HAVING PHENYL GROUP AND USES THEREOF” (BNH RESEARCH CO., LTD., priority 2022, published 2025).

Assays:
HDAC4 = molecular target: T1, HDAC4 (Mus musculus, UniProt Q6NZM9); experiment: HDAC4 protein level in barrel cortex by Western blot; format: in vivo; details: mice barrel cortex
T1 construct: Cortical tissue from mice was prepared according to protocol above then was homogenized and lysed for protein extraction; from tissue; host or cells: barrel cortex of C57BL/6J mice
T1 sequence (Q6NZM9 whole entry): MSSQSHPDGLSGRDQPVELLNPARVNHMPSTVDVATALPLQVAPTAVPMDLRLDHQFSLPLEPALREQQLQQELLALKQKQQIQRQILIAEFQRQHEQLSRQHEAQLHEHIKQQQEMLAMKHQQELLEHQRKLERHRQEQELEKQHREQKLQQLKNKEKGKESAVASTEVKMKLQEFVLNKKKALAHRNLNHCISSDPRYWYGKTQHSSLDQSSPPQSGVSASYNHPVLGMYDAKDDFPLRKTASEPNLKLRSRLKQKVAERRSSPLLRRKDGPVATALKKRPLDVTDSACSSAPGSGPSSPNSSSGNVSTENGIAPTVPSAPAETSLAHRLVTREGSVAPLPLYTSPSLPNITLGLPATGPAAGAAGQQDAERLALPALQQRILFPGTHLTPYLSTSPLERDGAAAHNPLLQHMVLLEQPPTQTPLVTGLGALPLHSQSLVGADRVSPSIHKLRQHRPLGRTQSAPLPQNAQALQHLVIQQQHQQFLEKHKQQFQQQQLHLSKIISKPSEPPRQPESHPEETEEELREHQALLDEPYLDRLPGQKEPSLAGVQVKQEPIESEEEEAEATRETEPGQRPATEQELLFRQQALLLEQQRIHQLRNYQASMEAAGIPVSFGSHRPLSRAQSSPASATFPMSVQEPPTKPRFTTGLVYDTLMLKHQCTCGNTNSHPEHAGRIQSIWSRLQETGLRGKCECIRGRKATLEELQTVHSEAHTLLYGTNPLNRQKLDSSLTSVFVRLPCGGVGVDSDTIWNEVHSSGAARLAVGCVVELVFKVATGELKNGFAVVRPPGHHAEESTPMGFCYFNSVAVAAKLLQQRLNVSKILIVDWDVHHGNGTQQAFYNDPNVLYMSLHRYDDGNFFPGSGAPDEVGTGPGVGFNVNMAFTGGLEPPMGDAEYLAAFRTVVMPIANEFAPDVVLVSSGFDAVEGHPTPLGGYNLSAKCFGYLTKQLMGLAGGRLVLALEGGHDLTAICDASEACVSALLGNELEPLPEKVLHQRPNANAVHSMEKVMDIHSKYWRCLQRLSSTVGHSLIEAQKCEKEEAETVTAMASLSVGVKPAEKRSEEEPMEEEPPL

293T cells = experiment: Cytotoxicity test (CCK-8 cell viability) in 293T cells; format: cell-based, human
Outline: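 293T cells plated 24 h, then exposed to serial compound concentrations for 24 h (six replicates). Viability by CCK-8 ([…], OD 450 nm), blank-subtracted and expressed as percent of vehicle control; IC50 calculated from these values.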

HDAC4 protein expression (HDAC4; intraperitoneal administration): significantly suppressed
HDAC4 protein expression (HDAC4; oral administration): significantly suppressed
duration of the inhibitory effect on HDAC4 protein expression (HDAC4; oral and intraperitoneal administration): ≥ 10 days
SMILES: C[C@H]1CC[C@@H](C(=O)O)CN1C(=O)Cc1ccc(-c2cncnc2)cc1 [BnH12003, (3R,6S)-6-methyl-1-(2-(4-(pyrimidin-5-yl)phenyl)acetyl) piperidine-3-carboxylic acid]
Cell viability test results (CCK) 10 uM (293T cells; 293T cell line, 10 uM): 99%<
Cell viability test results (CCK) 100 uM (293T cells; 293T cell line, 100 uM): 90%<
cell viability (293T cells; 293T, 0, 0.1, 1, 10, 100 μM, 24 hours, CCK-8): no significant change in cell viability
